One assay has as its target T1, Axl (Homo sapiens, UniProt P30530).
T1 construct: purchased Life Technologies
T1 sequence (P30530 26-894): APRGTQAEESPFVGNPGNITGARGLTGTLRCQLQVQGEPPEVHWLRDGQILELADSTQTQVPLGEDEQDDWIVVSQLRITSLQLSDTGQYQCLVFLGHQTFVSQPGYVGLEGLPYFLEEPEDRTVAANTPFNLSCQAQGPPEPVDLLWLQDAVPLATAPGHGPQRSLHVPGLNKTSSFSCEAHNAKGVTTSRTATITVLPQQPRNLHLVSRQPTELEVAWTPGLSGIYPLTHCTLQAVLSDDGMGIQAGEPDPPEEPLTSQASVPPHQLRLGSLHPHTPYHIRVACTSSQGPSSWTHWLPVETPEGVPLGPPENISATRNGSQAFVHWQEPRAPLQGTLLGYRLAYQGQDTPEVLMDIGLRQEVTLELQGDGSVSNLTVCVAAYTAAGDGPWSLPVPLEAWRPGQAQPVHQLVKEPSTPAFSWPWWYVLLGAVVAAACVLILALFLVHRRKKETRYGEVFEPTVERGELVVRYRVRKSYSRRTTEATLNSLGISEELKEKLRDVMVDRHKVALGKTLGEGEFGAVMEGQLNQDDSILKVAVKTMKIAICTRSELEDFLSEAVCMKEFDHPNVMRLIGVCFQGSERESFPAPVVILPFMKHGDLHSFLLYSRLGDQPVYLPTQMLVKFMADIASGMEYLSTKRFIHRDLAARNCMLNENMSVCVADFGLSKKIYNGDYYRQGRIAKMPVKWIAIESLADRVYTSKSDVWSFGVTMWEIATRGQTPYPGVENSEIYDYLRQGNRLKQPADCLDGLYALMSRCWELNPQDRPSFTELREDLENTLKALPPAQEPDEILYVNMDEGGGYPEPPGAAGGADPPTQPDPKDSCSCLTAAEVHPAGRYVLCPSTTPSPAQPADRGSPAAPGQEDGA
The assay can be described thus: LanthaScreen Eu kinase binding assay, Axl. The conditions noted are these: Tracer 236. The procedure:
(§1) LanthaScreen® Eu Kinase Binding assays were conducted at Life Technologies using the manufacturer's specifications for each kinase indicated.
(§2) Briefly, the principle behind this assay is based upon the binding and displacement of an Alexa Fluor 647-labeled tracer to the kinase of interest. Binding of the tracer to the kinase is detected using an EU-labeled anti-tag antibody. Simultaneous binding of both the tracer and antibody to the kinase gives rise to a FRET-signal. Binding of an inhibitor to the kinase competes for binding with the tracer, resulting in a loss of FRET-signal.
(§3) Binding Assay Protocol for AXL, Mer, Tyro3 and Met
(§4) A given compound was diluted in DMSO to make a stock compound solution. The stock compound solution was serially diluted over eight steps in DMSO. Each diluted compound solution in DMSO was diluted in kinase buffer. Afterwards four kinds of working solution were prepared. First, Tracer-Working solution consists of Tracer 236 and Kinase Buffer. Second, Axl, Mer, Tyro3 or Met/anti-GST-AB-Working solution contained one of the kinases Axl, Mer, Tyro3, Met or anti-GST-AB (=anti glutathione-S-transferase antibody) in Kinase Buffer. Third, anti-GST-AB-Working solution was made with anti-GST-AB and Kinase Buffer. Last, in the DMSO-Working solution DMSO was added to Kinase Buffer to a final concentration to 3%. Each of the four kinds of working solutions were separately added to the assay plate and then incubated for 1 h at room temperature. After incubation, the assay plate was measured with respect to the FRET-Signal with the EnVision (Perkin Elmer) using the program LanthaHTRF-Assay. Data evaluation was done in the Quattro Workflow software.
(§5) Table 1 summarises the results obtained for AXL, Mer and Tyro3-kinases binding assays; table 2 summarises the results obtained for the Met kinase binding assay.
Background: In TR-FRET formats the signal depends on donor and acceptor labels being close together.

Another assay deals with T2, Met (Homo sapiens, UniProt P08581).
T2 construct: purchased Life Technologies
T2 sequence (P08581 25-1390): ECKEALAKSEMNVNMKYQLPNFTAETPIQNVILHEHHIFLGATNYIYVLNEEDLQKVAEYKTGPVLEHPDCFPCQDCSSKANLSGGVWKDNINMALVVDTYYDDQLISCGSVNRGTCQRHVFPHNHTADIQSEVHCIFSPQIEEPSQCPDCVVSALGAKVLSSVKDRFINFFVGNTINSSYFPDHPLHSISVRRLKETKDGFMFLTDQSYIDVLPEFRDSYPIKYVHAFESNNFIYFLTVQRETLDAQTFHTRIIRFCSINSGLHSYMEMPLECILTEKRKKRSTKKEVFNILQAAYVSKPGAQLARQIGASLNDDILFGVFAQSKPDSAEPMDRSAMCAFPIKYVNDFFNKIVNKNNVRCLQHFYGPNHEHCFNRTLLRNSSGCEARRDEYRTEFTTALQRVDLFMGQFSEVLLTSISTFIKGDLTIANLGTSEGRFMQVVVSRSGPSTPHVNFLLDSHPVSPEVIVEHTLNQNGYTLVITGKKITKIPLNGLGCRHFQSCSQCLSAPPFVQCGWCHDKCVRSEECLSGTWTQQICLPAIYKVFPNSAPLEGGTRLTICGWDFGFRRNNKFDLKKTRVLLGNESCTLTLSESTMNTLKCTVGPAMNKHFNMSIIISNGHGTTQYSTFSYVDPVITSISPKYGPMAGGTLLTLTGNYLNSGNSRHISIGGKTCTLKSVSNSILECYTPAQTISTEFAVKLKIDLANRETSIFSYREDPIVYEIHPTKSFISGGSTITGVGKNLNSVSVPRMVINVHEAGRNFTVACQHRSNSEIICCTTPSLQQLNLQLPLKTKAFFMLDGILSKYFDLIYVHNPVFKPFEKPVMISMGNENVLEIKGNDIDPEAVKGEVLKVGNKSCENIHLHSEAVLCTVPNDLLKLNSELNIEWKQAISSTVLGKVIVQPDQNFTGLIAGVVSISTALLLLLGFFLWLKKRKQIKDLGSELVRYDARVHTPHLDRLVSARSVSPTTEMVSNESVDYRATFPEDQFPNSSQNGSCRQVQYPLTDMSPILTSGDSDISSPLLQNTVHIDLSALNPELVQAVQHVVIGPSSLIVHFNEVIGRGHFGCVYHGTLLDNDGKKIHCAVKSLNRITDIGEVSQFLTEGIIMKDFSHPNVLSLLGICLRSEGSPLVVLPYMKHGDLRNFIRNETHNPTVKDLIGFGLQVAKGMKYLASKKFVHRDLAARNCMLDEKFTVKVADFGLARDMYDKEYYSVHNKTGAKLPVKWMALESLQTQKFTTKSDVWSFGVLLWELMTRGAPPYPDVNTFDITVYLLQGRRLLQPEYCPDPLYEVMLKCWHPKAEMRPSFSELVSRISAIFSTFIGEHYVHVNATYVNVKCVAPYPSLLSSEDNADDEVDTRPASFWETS
The assay can be described thus: LanthaScreen Eu kinase binding assay, Met. As to conditions: Tracer 236, read-out: cMet kinase binding activity (Kd). The method, then:
as §1, §2, §3, §4, §5

For another assay, the target named is T3, Mer (Homo sapiens, UniProt Q12866).
T3 construct: purchased Life Technologies
T3 sequence (Q12866 21-999): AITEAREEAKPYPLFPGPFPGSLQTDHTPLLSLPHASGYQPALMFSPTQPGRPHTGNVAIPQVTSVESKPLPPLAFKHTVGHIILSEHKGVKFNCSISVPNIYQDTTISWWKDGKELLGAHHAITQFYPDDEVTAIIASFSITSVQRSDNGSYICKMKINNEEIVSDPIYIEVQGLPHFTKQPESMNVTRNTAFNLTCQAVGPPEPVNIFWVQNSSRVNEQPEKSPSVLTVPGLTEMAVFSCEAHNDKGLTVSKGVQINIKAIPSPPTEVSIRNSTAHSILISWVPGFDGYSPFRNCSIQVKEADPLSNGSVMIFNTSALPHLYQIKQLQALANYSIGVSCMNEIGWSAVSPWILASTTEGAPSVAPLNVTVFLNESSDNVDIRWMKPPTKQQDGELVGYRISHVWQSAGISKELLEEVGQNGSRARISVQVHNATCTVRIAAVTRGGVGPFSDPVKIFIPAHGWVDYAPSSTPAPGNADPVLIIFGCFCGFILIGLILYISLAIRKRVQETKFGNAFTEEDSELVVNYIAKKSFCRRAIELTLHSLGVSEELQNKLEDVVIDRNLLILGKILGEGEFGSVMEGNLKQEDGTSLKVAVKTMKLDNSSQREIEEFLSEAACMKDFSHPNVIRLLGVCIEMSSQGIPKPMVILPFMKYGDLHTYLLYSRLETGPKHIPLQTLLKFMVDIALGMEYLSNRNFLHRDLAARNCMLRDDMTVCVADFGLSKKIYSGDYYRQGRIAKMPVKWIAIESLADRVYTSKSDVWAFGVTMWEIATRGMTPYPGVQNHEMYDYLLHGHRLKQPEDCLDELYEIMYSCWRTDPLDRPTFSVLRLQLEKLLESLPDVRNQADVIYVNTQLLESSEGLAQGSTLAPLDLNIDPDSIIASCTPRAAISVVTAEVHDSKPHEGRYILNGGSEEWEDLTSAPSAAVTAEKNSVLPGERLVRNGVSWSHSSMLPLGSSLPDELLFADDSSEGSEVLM
The assay can be described thus: LanthaScreen Eu kinase binding assay, Mer. The conditions noted are these: Tracer 236. The procedure: as §1, §2, §3, §4, §5

Another assay deals with T4, TYRO3 (Homo sapiens, UniProt Q06418).
T4 construct: purchased Life Technologies
T4 sequence (Q06418 41-890): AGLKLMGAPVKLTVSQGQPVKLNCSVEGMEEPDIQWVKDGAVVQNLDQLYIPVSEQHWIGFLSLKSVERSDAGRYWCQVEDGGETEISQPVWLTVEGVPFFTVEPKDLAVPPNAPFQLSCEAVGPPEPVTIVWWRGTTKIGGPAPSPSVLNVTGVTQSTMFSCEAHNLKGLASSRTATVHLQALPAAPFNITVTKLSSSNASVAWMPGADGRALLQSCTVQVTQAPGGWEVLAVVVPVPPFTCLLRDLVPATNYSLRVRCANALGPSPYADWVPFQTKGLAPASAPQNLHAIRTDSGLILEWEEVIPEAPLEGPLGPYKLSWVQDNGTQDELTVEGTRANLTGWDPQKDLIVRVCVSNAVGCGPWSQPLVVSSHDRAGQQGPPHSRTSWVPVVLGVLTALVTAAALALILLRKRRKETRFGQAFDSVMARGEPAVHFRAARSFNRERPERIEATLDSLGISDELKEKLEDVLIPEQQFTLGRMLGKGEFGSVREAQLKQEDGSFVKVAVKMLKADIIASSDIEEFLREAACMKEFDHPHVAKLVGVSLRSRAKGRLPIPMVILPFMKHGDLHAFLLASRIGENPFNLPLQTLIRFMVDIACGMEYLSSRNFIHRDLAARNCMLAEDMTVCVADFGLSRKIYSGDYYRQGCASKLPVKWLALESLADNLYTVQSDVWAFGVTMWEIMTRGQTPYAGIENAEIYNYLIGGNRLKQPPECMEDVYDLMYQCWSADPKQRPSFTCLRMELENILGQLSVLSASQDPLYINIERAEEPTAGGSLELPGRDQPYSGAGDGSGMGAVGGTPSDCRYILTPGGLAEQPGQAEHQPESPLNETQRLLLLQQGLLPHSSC
The assay can be described thus: LanthaScreen Eu kinase binding assay, TYRO3. As to conditions: Tracer 236. The method, then: as §1, §2, §3, §4, §5

In the case of `CCOc1cnn(-c2ccc(C(C)C)cc2)c1C(=O)Nc1ccc(Oc2ccnc3cc(OC)c(OC)cc23)cn1` [Compound 118], the Kd at Axl is 100 to 1000 nM; at Met, 100 to 1000 nM; at Mer, below 100 nM; at TYRO3, 100 to 1000 nM.

As to `CCOc1cn(-c2ccc(F)cc2C)nc1C(=O)Nc1ccc(Oc2ccnc3cc(OC)c(OC)cc23)cc1CO` [Compound 119], the Kd on Axl, at Met, on Mer and at TYRO3 was 100 to 1000 nM in each case.

As to `CCOc1cn(-c2ccc(C(C)(C)C)cc2)nc1C(=O)Nc1ccc(Oc2ccnc3cc(OC)c(OC)cc23)cn1` [Compound 121], the Kd at Axl is 100 to 1000 nM; at Met it was 100 to 1000 nM; at Mer it was below 100 nM; on TYRO3, at least 1000 nM.

On to `CCOc1cn(-c2ccc(F)cc2C)nc1C(=O)Nc1csc(Oc2ccnc3cc(OC)c(OC)cc23)n1` [Compound 122], for which the Kd on Axl, on Met, on Mer and at TYRO3 was at least 1000 nM each time.

With `CCOc1cnn(-c2ccc(C(C)(C)C)cc2)c1C(=O)Nc1ccc(Oc2ccnc3cc(OC)c(OC)cc23)cn1` [Compound 123], the Kd on Axl is 100 to 1000 nM; at Met it was 100 to 1000 nM; at Mer, 100 to 1000 nM; at TYRO3 it was at least 1000 nM.

With `CCOc1cn(-c2c(CN(C)C)ccnc2C)nc1C(=O)Nc1ccc(Oc2ccnc3cc(OC)c(OC)cc23)cn1` [Compound 131], the Kd on Axl is 100 to 1000 nM; on Met, 100 to 1000 nM; at Mer, 100 to 1000 nM; on TYRO3, at least 1000 nM.

As to `CCOc1cn(-c2ncc(Cl)cc2CN)nc1C(=O)Nc1ccc(Oc2ccnc3cc(OC)c(OC)cc23)cn1` [Compound 134], the Kd on Axl is 100 to 1000 nM; at Met, below 100 nM; on Mer, below 100 nM; at TYRO3, at least 1000 nM.

Consider `CCOc1cn(-c2cnc(N)cn2)nc1C(=O)Nc1ccc(Oc2ccnc3cc(OC)c(OC)cc23)cn1` [Compound 136], for which the Kd on Axl, on Met, on Mer and on TYRO3 was below 100 nM in each case.

Turning to `CCOc1cn(-c2cnc(N)cc2C)nc1C(=O)Nc1ccc(Oc2ccnc3cc(OC)c(OC)cc23)cn1` [Compound 137], the Kd on Axl was below 100 nM; on Met, below 100 nM; on Mer, below 100 nM; on TYRO3, 100 to 1000 nM.

Take `CCOc1cn(-c2ncc(Cl)cc2CN(C)C)nc1C(=O)Nc1ccc(Oc2ccnc3cc(OC)c(OC)cc23)cn1` [Compound 138]: the Kd was 100 to 1000 nM at Axl, below 100 nM at Met, below 100 nM on Mer and 100 to 1000 nM at TYRO3.

For `CCOc1cn(-c2cnc(N)s2)nc1C(=O)Nc1ccc(Oc2ccnc3cc(OC)c(OC)cc23)cn1` [Compound 139], the Kd on Axl is below 100 nM; on Met it was below 100 nM; on Mer, below 100 nM; on TYRO3, 100 to 1000 nM.

For `CCOc1cn(-c2cnc(N)nc2)nc1C(=O)Nc1ccc(Oc2ccnc3cc(OC)c(OC)cc23)c(C)c1` [Compound 140], the Kd at Axl is below 100 nM; on Met, below 100 nM; on Mer, below 100 nM; on TYRO3, 100 to 1000 nM.

In the case of `CCOc1cn(-c2ncccc2CN(C)C)nc1C(=O)Nc1ccc(Oc2ccnc3cc(OC)c(OC)cc23)cn1` [Compound 142], the Kd is 100 to 1000 nM on Axl, below 100 nM at Met, below 100 nM at Mer and 100 to 1000 nM at TYRO3.

Take `CCOc1cn(-c2ncc(N)nc2C)nc1C(=O)Nc1ccc(Oc2ccnc3cc(OC)c(OC)cc23)cn1` [Compound 143]: the dissociation constant Kd on Axl, at Met, on Mer and on TYRO3 was below 100 nM in each case.

Regarding `CCOc1cn(-c2cnc(C(F)(F)F)nc2)nc1C(=O)Nc1ccc(Oc2ccnc3cc(OC)c(OC)cc23)cn1` [Compound 144], the Kd at Axl is below 100 nM; on Met, 100 to 1000 nM; at Mer, below 100 nM; at TYRO3, 100 to 1000 nM.

What is called Kd is the concentration at which binding is half-saturated.

The values above are taken from patent publication US10934274B2, “Quinoline derivatives as TAM RTK inhibitors” (Qurient Co., Ltd., priority 2015, dated 2021).
